This is an account of results in patent EP1764363A2, “Substituted acetophenonederivatives” (Riemser Arzneimittel AG, priority 2005, dated 2007).

≈ marks a conversion by molar mass, not a printed value.

Assay [1] has as its system CaCo-2. The assay can be described thus: Chemosensitivity test (modified MTT test EZ4U). The following applies: Homo sapiens, Caco-2, 96 h, read-out: IC50-Werte.
Protocol: (§1) Die Verbindungen wurden in Dimethylsulfoxid (DMSO) als konzentrierte Stammlösungen (100-400fach) gelöst und für Proliferationstests in Zellkulturmedium verdünnt.
(§2) Die Zellen wurden auf Verunreinigung durch Mycoplasmen untersucht. Das Medium wurde mit 10% hitzeinaktiviertem foetalem Kälberserum (Seromed) and 4 mM Glutamin ergänzt. Die Zellen wurden durch Trypsinierung subkultiviert (0.03% Trypsin enthaltend 0.02% EDTA, dreimal pro Woche). Die Trypsinierung wurde durch Verwendung vom komplettem Zellkulturmedium gestoppt. Die Zellzahl wurde unter Verwendung eines TOA Sysmex Microzellzählers (TOA, Tokyo, Japan) bestimmt.
(§3) 10^4 Zellen/well wurden in Mikrotiterplatten mit 96 Vertiefungen (100 µl Medium) verteilt und die zu testenden Verbindungen wurden in einem weiteren Volumen von 100 µl hinzugegeben. Alle Verbindungen wurden entweder in 3 fixen Konzentrationen eingesetzt (für Tabellen 1-3) oder in 10 Stufen verdünnt unter Verwendung von Zweifachverdünnungsschritten zur Bestimmung der IC50-Werte (dreifache Ansätze, in den meisten Fällen vierfache Ansätze). Die Platten wurden, mit der Ausnahme der Tests zur Untersuchung des Zusammenhangs von Applikationsdauer und Zellreaktion, 4 Tage lang unter Zellkulturbedingungen inkubiert und die Zellviabilität wurde unter Verwendung eines modifizierten MTT Tests bestimmt (Formazan-Farbstoffbildung aus Tetrazoliumsalzen wie MTT, XTT, WST-1 und anderen durch das mitochondriale Reduktionsystem Succinattetrazolium Reductase EC 1.3.99.1.; EZ4U nichtradioaktiver Zellproliferations- und Cytotoxizitätstest, Biomedica, Wien, Österreich; Testmanual unter: www.bmgrp.com). Hierbei wurde die mitochondriale Aktivität und dadurch die Zellviabilität/Zellzahl bestimmt. Kurz gesagt wurde das gelieferte Substrat in einer Aktivatorlösung gelöst und 20 µl der Mischung wurden für 2 Stunden pro Vertiefung hinzugegeben (Gesamtvolumen 200 µl). Die optische Dichte wurde bei 450 nm unter Verwendung einer leeren Vertiefung als Referenz in einem Mikroplattenlesegerät (Eurogenetics, Brüssel, Belgien) bestimmt. Für jede Zell-Line wurden Vertiefungen verwendet um das MTT-Signal der Mediumkontrollen ohne Testsubstanzen zu bestimmen. Die Proliferation in den Test-Vertiefungen wurde in Bezug auf diese Kontrollwerte (100%) errechnet. Die Testergebnisse wurden zwischen 0,3 und 1,5 optischer Dichte für langsam bzw. schnellproliferierende Zellen erfasst. Diese Dosis-Wirkungs-Beziehungen wurden verwendet um die IC50 (Konzentration bei der das Wachstum um 50% gehemmt wird) unter Verwendung von PRISM Scientific Software (GraphPad Inc., San Diego, CA) zu berechnen.
Assay [2] concerns Bacillus subitilis. Nature of the assay: Minimal inhibitory concentration (MHK), microtitre plate, TTC staining. It counts as cell-based. The note with it: 48h, 36°C.
For assay [3], the system named is E. hirae. The description is as above. It counts as cell-based. The note with it: 48h, 36°C.
The subject of assay [4] is CRO2B. The assay can be described thus: Chemosensitivity test (modified MTT test EZ4U). The following applies: Homo sapiens, 96 h, read-out: IC50-Werte.
Protocol: as §1, §2, §3
In assay [5] the test system is DU 145. Nature of the assay: Chemosensitivity test (modified MTT test EZ4U). The following applies: Homo sapiens, DU-145, 96 h, read-out: IC50-Werte.
Description: as §1
(§4) Mit Ausnahme von SIM, KAL Ewingsarkom (in Wien etabliert) und LAN Neuroblastom (University of Los Angeles) wurden die Zell-Linien von der American Type Culture Collection (ATCC, Rockville, MD) bezogen und zum Erhalt von konfluenten Monolayerkulturen in RPMI-1640 Bikarbonatmedium (Seromed, Berlin, Deutschland) in einem Zellkulturschrank (5% CO2, 37°C) kultiviert. Mit der Ausnahme der murinen NlH3T3 Fibroblasten sind alle verwendeten Zell-Linien humanen Ursprungs. Die Zellen wurden auf Verunreinigung durch Mycoplasmen untersucht. Das Medium wurde mit 10% hitzeinaktiviertem foetalem Kälberserum (Seromed) and 4 mM Glutamin ergänzt. Die Zellen wurden durch Trypsinierung subkultiviert (0.03% Trypsin enthaltend 0.02% EDTA, dreimal pro Woche). Die Trypsinierung wurde durch Verwendung vom komplettem Zellkulturmedium gestoppt. Die Zellzahl wurde unter Verwendung eines TOA Sysmex Microzellzählers (TOA, Tokyo, Japan) bestimmt.
(§5) 10^4 Zellen/well wurden in Mikrotiterplatten mit 96 Vertiefungen (100 µl Medium) verteilt und die zu testenden Verbindungen wurden in einem weiteren Volumen von 100 µl hinzugegeben. […]
The test system of assay [6] is T47D. The assay can be described thus: Chemosensitivity test (modified MTT test EZ4U). The note with it: Homo sapiens, T47D, 96 h, read-out: IC50-Werte.
Protocol: as §1, §2, §3
Assay [7] deals with S. aureus. Nature of the assay: Minimal inhibitory concentration (MHK), microtitre plate, TTC staining. The note with it: 48h, 36°C. It counts as cell-based.
The test system of assay [8] is WI38. The assay can be described thus: Chemosensitivity test (modified MTT test EZ4U). The note with it: Homo sapiens, WI-38, 96 h, read-out: IC50-Werte.
Protocol: as §1, §2, §3
Assay [9] relates to Candida albicans. Nature of the assay: Minimal inhibitory concentration (MHK), microtitre plate, TTC staining. It is filed as cell-based. The following applies: 48h, 36°C.
For assay [10], the system named is Micrococcus luteus. Described as above. It counts as cell-based. The note with it: 48h, 36°C.
The subject of assay [11] is S. falcium. The assay is described as above. It is filed as cell-based. The note with it: 48h, 36°C.
Assay [12] relates to Salmonella sp. The assay is described as above. It is filed as cell-based. The note with it: 48h, 36°C. From the text: Das Inokulum für die Tests wurde durch Verdünnung der Mikroorganismen in wässriger 0,85% NaCI-Lösung hergestellt, die Verdünnung auf die Stufe 0,5 nach McFarland eingestellt und die Konzentration spektrometrisch bei einer Wellenlänge von 580nm überprüft. Die Zellsuspensionen wurden zur Verwendung in den Tests auf 10^4 UFC/ml verdünnt. Die MHK-Tests erfolgten (Vorschrift nach J. N. P. Eloff, Planta Medica, Vol. 64, 1998, p 711-713) in Mikrotiterplatten mit 96 Vertiefungen. Serienverdünnungen der Konzentrationen lagen im Bereich 1,00 - 0,0015 mg/mL. Als Kontrollsubstanzen dienten Chloramphenicol bzw. Nistatin (Merck) in einer Konzentration von 0,062 - 0,005 mg/ml bzw. 0,0125 - 0,001 mg/ml. Das Inokulum (100 µl) wurde in alle Vertiefungen gegeben und die Platten für 48h bei 36°C inkubiert. Die antimikrobielle Aktivität wurde durch Zugabe von 20 µl einer 0,5% igen wässrigen Lösung von TTC (Tetrazoliumchlorid, Merck) pro Vertiefung detektiert. Die minimale Hemmkonzentration (MHK) wird als die niedrigste Konzentration der Verbindung definiert die das sichtbare Wachstum hemmt (durch TTC-Färbung indiziert).

The test system of assay [13] is BT20. The assay can be described thus: Chemosensitivity test (modified MTT test EZ4U). The following applies: Homo sapiens, BT-20, 96 h, read-out: IC50-Werte.
Description: as §1, §4, §5
The subject of assay [14] is MDA-MB435. The assay can be described thus: Chemosensitivity test (modified MTT test EZ4U). The note with it: Homo sapiens, MDA-MB-435, 96 h, read-out: IC50-Werte.
Description: as §1, §4, §5
For assay [15], the system named is MIAPaCa2. Nature of the assay: Chemosensitivity test (modified MTT test EZ4U). The note with it: Homo sapiens, MIA PaCa-2, 96 h, read-out: IC50-Werte.
Protocol: as §1, §2, §3
The test system of assay [16] is BxPC3. Nature of the assay: Chemosensitivity test (modified MTT test EZ4U). The note with it: Homo sapiens, BXPC-3, 96 h, read-out: IC50-Werte.
Description: as §1, §4, §5
Assay [17] has as its system Escherichia coli. Nature of the assay: Minimal inhibitory concentration (MHK), microtitre plate, TTC staining. The following applies: 48h, 36°C. It counts as cell-based.
Assay [18] concerns S. epidermides. The assay is described as above. It is filed as cell-based. The following applies: 48h, 36°C.
The subject of assay [19] is SW620. Nature of the assay: Chemosensitivity test (modified MTT test EZ4U). The note with it: Homo sapiens, SW-620, 96 h, read-out: IC50-Werte.
Protocol: as §1, §2, §3
Assay [20] has as its system Colo205. Nature of the assay: Chemosensitivity test (modified MTT test EZ4U). The note with it: Homo sapiens, COLO 205, 96 h, read-out: IC50-Werte.
Protocol: as §1, §2, §3
Assay [21] has as its system Rhodococcus equi. The assay can be described thus: Minimal inhibitory concentration (MHK), microtitre plate, TTC staining. It counts as cell-based. The following applies: 48h, 36°C.
Assay [22] relates to Staphylococcus aureus (Stamm ATCC 6538). The assay can be described thus: Mouse ear test (in vivo), antiseptic effect. Further details: key to Keimwachstum (grade): +++: totale Verhinderung des Keimwachstums; ++: Keimwachstum deutlich reduziert aber nicht völlig unterdrückt. The following applies: mouse ears infected with S. aureus ATCC 6538; germ count vs infected untreated animal after 18 and 24 h.

The nature of assay [23]: Radical scavenger screening with DPPH radicals (DPPH test). The following applies: Konzentrationen 500 und 1000µg/ml. An excerpt: […] die 6 Verbindungen HMF2, HMF-3, CH-1, L5, Q20 und […]. Die […] durch den DPPH-Test ermittelt, wobei sich die UV/VIS-Absorption des freien stabilen […] (Diphenyl-β-picrylhydrazin) in Abhängigkeit vom Zustand von […]. Die Auswertung erfolgt qualitativ (dünnschichtchromatographisch) und quantitativ (photometrisch) mit Ascorbinsäure […] Molyneux P. (2004) The use of the stabel free radical diphenylpicrylhydrazyl (DPPH) for estimating antioxidant activity. Songklanakarin J Sci Technol. 26(2): 211-219).

Assay [24] deals with HT29. Nature of the assay: Chemosensitivity test (modified MTT test EZ4U). The following applies: Homo sapiens, HT-29, 96 h, read-out: IC50-Werte.
Description: as §1, §4, §5

For the compound `COc1cc(/C=C/C(=O)c2ccccc2O)ccc1O` [Q20, 3-(4-Hydroxy-3-methoxyphenyl)-1-(2-hydroxyphenyl)-propenon], the IC50 in assay [1] was 12 µg/mL (≈ 44.4 µM); in assay [4] it was 12 µg/mL (≈ 44.4 µM); in [5], 16 µg/mL (≈ 59.2 µM); in assay [6], 25 µg/mL (≈ 92.5 µM); in assay [8], 8.3 µg/mL (≈ 30.7 µM); in [13] it was 33 µg/mL (≈ 122 µM). Besides, the IC50 in [14] was found to be 24 µg/mL (≈ 88.8 µM); in [15], 18 µg/mL (≈ 66.6 µM); in [16] it was 33 µg/mL (≈ 122 µM); in assay [19] it was 17 µg/mL (≈ 62.9 µM); in assay [20], 27 µg/mL (≈ 99.9 µM); in [24], 16 µg/mL (≈ 59.2 µM). Also, the MHK-Werte in [2] is reported as 0,5 mg/ml; in assay [3] it was >1,0 mg/ml; in assay [7], 1,0 mg/ml; in assay [9], 0,3 mg/ml; in [10] it was 1,0 mg/ml; in assay [11] it was 0,3 mg/ml. The MHK-Werte in assay [12] is >1,0 mg/ml; in [17], >1,0 mg/ml; in assay [18] it was 0,5 mg/ml; in assay [21], >1,0 mg/ml. Also, in assay [22], the “Keimwachstum (grade)” value is reported as “++”. In addition, the Keimwachstum reduziert auf in assay [22] is listed as 30%. The same compound displayed a Radikalfänger-Effekt in assay [23] of 98%.
With `COc1cc(/C=C/C(=O)c2ccccc2O)ccc1OCC=C(C)C` [Q21, 1-(2-Hydroxyphenyl)-3-[3-methoxy-4-(3-methylbut-2-enyloxy)phenyl]propenon], the MHK-Werte in assay [2] is >1,0 mg/ml; in assay [3], >1,0 mg/ml; in [7], >1,0 mg/ml; in assay [9], 0,6 mg/ml; in [10] it was >1,0 mg/ml; in [11], 0,8 mg/ml. Further, the MHK-Werte in assay [12] is 0,9 mg/ml; in assay [17], >1,0 mg/ml; in assay [18] it was >1,0 mg/ml; in assay [21], >1,0 mg/ml.
For the compound `COc1cc(C2CC(=O)c3ccccc3O2)ccc1OCC=C(C)C` (stereo not shown) [Q25, 2-[3-Methoxy-4-(3-methylbut-2-enyloxy)phenyl]chroman-4-on], the IC50 in [1] is 18 µg/mL (≈ 53.2 µM); in assay [4], 6 µg/mL (≈ 17.7 µM); in assay [5] it was 15 µg/mL (≈ 44.3 µM); in [6], 10 µg/mL (≈ 29.6 µM); in [8], 8.2 µg/mL (≈ 24.2 µM); in [13], 45 µg/mL (≈ 133 µM). Besides, the IC50 was 34 µg/mL (≈ 100 µM) in assay [14]; 57 µg/mL (≈ 168 µM) in assay [15]; 80 µg/mL (≈ 236 µM) in assay [16]; 84 µg/mL (≈ 248 µM) in assay [19]; 75 µg/mL (≈ 222 µM) in assay [20]; 18 µg/mL (≈ 53.2 µM) in assay [24]. Besides, in assay [22], the “Keimwachstum (grade)” value is on record as “++”. In [22], this compound showed a Keimwachstum reduziert auf of 30%.
